How the values were obtained:
[1] = test system: 6-mm full-thickness excisional skin wounds; test: Wound healing and scar formation, excisional skin wounds in mice; format: in vivo, C57BL/6J mice; conditions: 14 days
Method: C57BL/6J mice were maintained at 22°C under a 12-h light/dark cycle. The experiments were performed with 12-week-old mice. After anesthetized by an intraperitoneal injection of ketamine (500 mg/kg) and xylazine (100 mg/kg), 6-mm full-thickness excisional skin wounds was made on the backs of mice using 6-mm skin biopsy punches. Immediately after wounding, 10-1200 µM of adenine or saline alone was applied to the wound bed. The skin wounds were then covered by semipermeable transparent dressing and fixed to the skin. The mice were treated with adenine or vehicle for 14 days and then sacrificed. The scar formation is assessed by Masson's trichrome staining (the tissue was fixed by 4% paraformaldehyde).

high-fat diet-fed mice = test: Anti-diabetic effects in high-fat diet-fed mice; format: in vivo, C57BL/6J mice; conditions: adenine 0.1 to 50 mg/kg IP twice a day for 6 days, compared to control group
Method: To further evaluate the effects of adenine on the modulation of plasma glucose level, the high-fat diet-fed mice were served as a type 2 diabetes animal model. C57BL/6J mice were maintained at 22°C under a 12-h light/dark cycle and fed either a high fat diet (60% kcal% fat) or a normal diet ad libitum. Intraperitoneal injections of adenine (0.1 to 50 mg/kg) or vehicle were given to the high-fat diet-fed mice from the age of 24 weeks and glucose readings were measure at 1 and 3 hr. IP administration of adenine or vehicle only to the high-fat diet-fed mice continued twice a day for 6 days. On day 6, plasma was collected 1 hr after the last dosing for analyzing, evaluating, measuring plasma glucose and triglycerides.

AMPK = AMPK activation assay (phospho-AMPK Thr172 western blot) in MCF7 cells; format: cell-based, human; conditions: 30 min
Method: Effects of adenine on AMPK activation were evaluated based on the phosphorylation of AMPK protein upon adenine treatment. Mouse muscle cell C2C12, mouse fibroblast 3T3, human liver carcinoma cell Hep G2, human breast adenocarcinoma cell line MCF7 and human colon adenocarcinoma grade II cell line HT29, human umbilical vein endothelial cell HUVEC, Human acute monocytic leukemiacell THP1, human macrophage cell U937, murine microglia cell BV-2, and mouse neuroblastoma cell Neuro2A and dermal papilla cell were cultured in high-glucose Dulbecco's modified Eagle's medium (DMEM) containing 10% fetal bovine serum (FBS), 4 mM L-glutamine, 2 mM sodium pyruvate and 1% penicillin/streptomycin (Invitrogen GibcoBRL, Carlsbad, Calif., USA) at 37°C, under 5% CO2. Cells were plated at 3 × 10^5 per well in 6-well plates. Twenty-four hours after plating, adenine was added to the culture media as indicated. After 30 min cells were lysed and subject to western blot analysis. Equal amount of protein from each sample was separated by SDS-PAGE and then electroblotted on to PVDF membranes. Membranes were blocked with 3% BSA in PBS for 60 min and incubated with an anti-phospho-AMPK (Thr172) antibody (1:2,000, Cell signaling) or an anti-AMPK antibody (1:2,000, Cell signaling) at 4°C for 16 h followed by the corresponding secondary antibody for 1 h at room temperature (RT). Immunoreactive bands were detected by enhanced chemiluminescence and recorded using Kodak film. The detected signals were scanned and then quantified using TotalLab Quant software (TotalLab).

COX-2 = test: LPS-induced inflammatory response in THP1 macrophages, intracellular COX-2 (western blot); format: cell-based, human; conditions: 50 ng LPS 6 hr
Method: Effects of adenine on inflammatory response were evaluated in human THP1 macrophage by examining protein level of intracellular COX-2 and secreted TNFα, IL-1β and IL-6. Differentiation of THP1 monocytes into macrophages was induced by 50 nM PMA for 24 hr. THP1 macrophages were further stimulated by 50 ng LPS for 6 hr in the presence of 10-600 µM of adenine or vehicle followed by cell lysis and western blot analysis. Equal amounts of protein were separated by SDS-PAGE and then electroblotted on to PVDF membranes. Membranes were blocked with 3% BSA in PBS for 60 min and incubated with an anti-COX-2 antibody (1:1,000, Cell signaling), an anti-actin antibody (1:5,000, Cell signaling) at 4° C for 16 h followed by the corresponding secondary antibody for 1 h at room temperature (RT). Immunoreactive bands were detected by enhanced chemiluminescence and recorded using Kodak film. The detected signals were scanned and then quantified using TotalLab Quant software (TotalLab). The secreted TNFα, IL-1β and IL-6 were analyzed by enzyme-linked immunosorbent assays.

LC3 = test: Autophagy assay (LC3-II/LC3-I western blot) in Neuro2A cells; format: cell-based, mouse; conditions: 24 h
Method: Effects of adenine on Amyloid β peptide were analyzed in mouse neuroblastoma cell Neuro2A. Neuro2A cells were cultured in high-glucose Dulbecco's modified Eagle's medium (DMEM) containing 10% fetal bovine serum (FBS), 4 mM L-glutamine, 2 mM sodium pyruvate and 1% penicillin/streptomycin (Invitrogen GibcoBRL, Carlsbad, Calif., USA) at 37°C under 5% CO2. Cells were plated at 3 × 10^5 per well (6-well plate). 24 h after plating, cells were transfected with human APP695 and treated with indicated concentration of adenine for 24 h followed by cell lysis and western blot analysis. Equal amounts of protein were separated by SDS-PAGE and then electroblotted on to PVDF membranes. Membranes were blocked with 3% BSA in PBS for 60 min and incubated with an anti-Aβ antibody (1:1,000, abcam), an anti-LC3 antibody (1:1,000, Cell signaling), and an anti-actin antibody (1:5,000, Cell signaling) at 4°C for 16 h followed by the corresponding secondary antibody for 1 h at room temperature (RT). Immunoreactive bands were detected by enhanced chemiluminescence and recorded using Kodakfilm. The detected signals were scanned and then quantified by using TotalLab Quant software (TotalLab).

Hep G2 = test: Cancer cell growth inhibition assay, Hep G2; format: cell-based; conditions: Homo sapiens; HepG2 cell proliferation, 72 h, cell counting
Method: Human liver hepatocellular carcinoma cell line Hep G2, human breast adenocarcinoma cell line MCF7 and human colon adenocarcinoma grade II cell line HT29 were used to evaluate the effects of adenine on cell proliferation. Those cell lines were obtained from ATCC and were cultured in high-glucose Dulbecco's modified Eagle's medium (DMEM) containing 10% fetal bovine serum (FBS), 4 mM L-glutamine, 2 mM sodium pyruvate and 1% penicillin/streptomycin (Invitrogen GibcoBRL, Carlsbad, Calif., USA) at 37°C under 5% CO2. Cells were plated at 1 × 10^5 per well (6-well plate). Twenty-four hours after plating, cells were treated with indicated concentration of adenine for 72 h and then followed by cell counting. Cells were detached using trypsin-EDTA solution and stained with trypan blue. The living cells were counted using hemocytometer.

## Nc1ncnc2nc[nH]c12 [Adenine, adenine]
[1]; topical 10-1200 µM adenine on wound bed, dose-dependent, vs control mice
  extent of closure: significantly greater
[1]; topical 10-1200 µM adenine, histological examination, vs vehicle treated wounds
  scar width: significantly decreased
high-fat diet-fed mice
  lower body weight: more than 15%
  lower plasma glucose: > 30%
  lower plasma triacylglycerides: more than 35%
high-fat diet-fed mice; listed as adenine
  lower plasma glucose: more than 30%
AMPK; adenine 1 microM
  AMPK activation (fold to control): 1.2 fold to control
AMPK; adenine 10 microM
  AMPK activation (fold to control): 1.6 fold to control
AMPK; adenine 100 microM
  AMPK activation (fold to control): 2.5 fold to control
AMPK; adenine 200 microM
  AMPK activation (fold to control): 3.4 fold to control
AMPK; adenine 600 microM
  AMPK activation (fold to control): 3.7 fold to control
COX-2; adenine 10 microM
  COX-2 (% to control): 81±4.4 % to control
COX-2; adenine 100 microM
  COX-2 (% to control): 59±3.5 % to control
COX-2; adenine 600 microM
  COX-2 (% to control): 38±5.3 % to control
LC3; adenine 10 microM
  LC3-II/LC3-I ratio (relative to control): 1.2 ± 0.1 relative to control
LC3; adenine 20 microM
  LC3-II/LC3-I ratio (relative to control): 1.8 ± 0.3 relative to control
LC3; adenine 30 microM
  LC3-II/LC3-I ratio (relative to control): 2.8 ± 0.2 relative to control
LC3; adenine 40 microM
  LC3-II/LC3-I ratio (relative to control): 2.9 ± 0.2 relative to control
LC3; adenine 50 microM
  LC3-II/LC3-I ratio (relative to control): 3.2 ± 0.3 relative to control
Hep G2
  IC50: 544 µM
